Results published in patent publication US20260125346A1, “Isoquinolinone Derivatives and 4H-Quinolizinone Derivatives and Pharmaceutical Compositions Thereof for the Treatment of Disease” (BeOne Medicines I GmbH, priority 2023, published 2026).
pIC50: −log10 of the molar value.

Assays:
Format in all cases: cell-based
[1] = system: PI3Kα H1047R mutated cell line T-47D cells; experiment: Cell Proliferation Assay (CellTiter-Glo), T-47D; settings: for pIC50: Homo sapiens, T47D, 72 h, T-47D, 3 days treatment; for Selectivity: SK-BR-3/T-47D (cell proliferation): cell proliferation IC50 ratio
Protocol: Cell Culture Maintenance. The T-47D (ATCC, HTB-133) cell line was obtained from the American Type Culture Collection. Cells were maintained in RPMI1640 medium (Gibco, REF #22400105) supplemented with 10% Fetal Bovine Serum (Gibco, REF #10091148). Cultures were maintained in a humidified incubator at 37° C. under 5% CO2/95% air.
(§1) Cell Proliferation Assay. PI3Kα H1047R mutated cell line T-47D cells and WT cell line SK-BR-3 were seeded at a density of 3×10^3 cells per well in 96 well plate (Xinyou Biotechnology, 062096) in 95 μL of culture medium, overnight. Compounds dissolved in 10 mM stock solutions in DMSO were serially diluted 1:3 in DMSO to generate a 9-point dilution series and plated using an INTEGRA ASSIST Plus pipetting robot. A 20× intermediate compound dilution plate in RPMI1640 medium (200 M starting compound concentration in 2% DMSO) was then prepared. Five μL of intermediate serially diluted compounds were added to the cell plate to final concentrations ranging from […] to 1 nM in 0.1% DMSO. 0.1% DMSO alone was used to establish the maximum signal and medium without cells was for minimum signal. After 3 days treatment, equilibrated the plate and its contents at room temperature for approximately 30 minutes. Added 30 μL CellTiter-Glo® Reagent (Promega, REF #G7571) to each well. Then mixed contents for 5 min on plate shaker to induce cell lysis. Incubated at room temperature for 10 minutes to stabilize luminescent signal. The plates were read on PHERAstar FSX Microplate reader using standard luminescence settings.
(§2) Relative IC50 values were determined using luminescence units by calculating percent inhibition with respect to the in-plate “MIN” (medium only) and “MAX” (0.1% DMSO) controls. The data were analyzed using a 4-parameter nonlinear logistic equation (four-parameter logistic concentration-response curve): Y=bottom+[(top−bottom)/1+(X/IC50) slope] • where Y=% inhibition, X=concentration of inhibitor, bottom=minimum value of y attained by curve-fit, top=maximum value of y attained by curve-fit and slope=steepness of curve at the IC50.

[2] = system: WT cell line SK-BR-3; experiment: Cell Proliferation Assay (CellTiter-Glo), SK-BR-3; settings: Homo sapiens, 72 h; SK-BR-3, 3 days treatment
Protocol: The SK-BR-3 (ATCC, HTB-30) cell line was obtained from the American Type Culture Collection. Cells were maintained in McCoy' 5A medium (Gibco, REF #16600108) supplemented with 10% Fetal Bovine Serum. Cultures were maintained in a humidified incubator at 37° C. under 5% CO2/95% air.
as §1, §2

[3] = system: PI3Kα H1047R mutated cell line T-47D; experiment: Phospho-AKT (Ser473) Inhibition Assay (HTRF), T-47D; settings: for pIC50: Homo sapiens, T47D, T-47D, 1 hour treatment, read-out: p-AKT Inhibition assay (S473) IC50 T-47D; for Selectivity: SK-BR-3/T-47D (p-AKT): p-AKT (S473) IC50 ratio
Method in brief: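 Cells seeded overnight in insulin-supplemented MEM, then treated 1 h with 11-point 1:3 compound dilutions (10 μM to 0.1 nM final, 0.1% DMSO). Lysates assayed for phospho-AKT Ser473 by HTRF; IC50 from 4-parameter logistic fit, normalised to DMSO (max) and 10 μM GDC0077 (min).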

[4] = system: WT cell line SK-BR-3; experiment: Phospho-AKT (Ser473) Inhibition Assay (HTRF), SK-BR-3; settings: Homo sapiens; SK-BR-3, 1 hour treatment; read-out: p-AKT Inhibition assay (S473) IC50 SK-BR-3
Method in brief: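 SK-BR-3 (PI3Kα WT) cells seeded overnight in MEM with insulin, then treated 1 h with 11-point 1:3 dilutions (10 μM to 0.1 nM, 0.1% DMSO). Lysates read for phospho-AKT Ser473 by HTRF after 4 h antibody incubation at room temperature. IC50 from 4-parameter fit, % inhibition normalized to DMSO (max) and 10 μM GDC0077 (min).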

Row | pIC50 [1] | pIC50 [2] | pIC50 [3] | pIC50 [4] | Compound | Selectivity: SK-BR-3/T-47D (cell proliferation) [1] | Selectivity: SK-BR-3/T-47D (p-AKT) [3]
1 | 6.77 | < 5.00 | 6.03 | < 5.00 | Cc1cc(C(C)Nc2ccccc2C(=O)O)c2cc(-c3ccc(C4(O)CCOCC4)cc3)n(C)c(=O)c2c1 (centres unmarked) [Example 73, 2-((1-(3-(4-(4-hydroxytetrahydro-2H-pyran-4-yl)phenyl)-2,7-dimethyl-1-oxo-1,2-dihydroisoquinolin-5-yl)ethyl)amino)benzoic acid] | >59 | >10.82
2 | < 5.00 | < 5.00 | < 5.00 | < 5.00 | Cc1cc([C@H](C)Nc2ccccc2C(=O)O)c2cc(-c3ccc(F)cc3)n(C)c(=O)c2c1 [Example 35, (S)-2-((1-(3-(4-fluorophenyl)-2,7-dimethyl-1-oxo-1,2-dihydroisoquinolin-5-yl)ethyl)amino)benzoic acid] | – | –
3 | 6.48 | < 5.00 | 5.71 | < 5.00 | Cc1cc(C(C)Nc2ccccc2C(=O)O)c2cc(-c3ccc(CN4CCOCC4)nc3)n(C)c(=O)c2c1 (centres unmarked) [Example 78, 2-((1-(2,7-dimethyl-3-(6-(morpholinomethyl)pyridin-3-yl)-1-oxo-1,2-dihydroisoquinolin-5-yl)ethyl)amino)benzoic acid] | >30 | >5.12
4 | 6.15 | < 5.00 | 7.12 | 5.14 | CC#Cc1ccc(-c2cc3c(C(C)Nc4ccccc4C(=O)O)cc(C)cc3c(=O)n2C)cc1 (centres unmarked) [Example 52, 2-((1-(2,7-dimethyl-1-oxo-3-(4-(prop-1-yn-1-yl)phenyl)-1,2-dihydroisoquinolin-5-yl)ethyl)amino)benzoic acid] | >14 | 95.1
5 | 6.94 | < 5.00 | 6.78 | 5.64 | Cc1cc(C(C)Nc2ccccc2C(=O)O)c2cc(-c3ccc4nn(C)cc4c3)n(C)c(=O)c2c1 (centres unmarked) [Example 19, 2-((1-(2,7-dimethyl-3-(2-methyl-2H-indazol-5-yl)-1-oxo-1,2-dihydroisoquinolin-5-yl)ethyl)amino)benzoic acid] | >86 | 13.8
6 | 6.08 | < 5.00 | 7.19 | 5.55 | Cc1cc(C(C)Nc2ccccc2C(=O)O)c2cc(C3=Cc4ccccc4CC3)n(C)c(=O)c2c1 (centres unmarked) [Example 45, 2-((1-(3-(3,4-dihydronaphthalen-2-yl)-2,7-dimethyl-1-oxo-1,2-dihydroisoquinolin-5-yl)ethyl)amino)benzoic acid] | >12 | 44.0
7 | 6.84 | < 5.00 | 7.15 | 5.44 | Cc1cc(C(C)Nc2ccccc2C(=O)O)c2cc(-c3ccc(F)c(F)c3)n(C)c(=O)c2c1 (centres unmarked) [Example 9, 2-((1-(3-(3,4-difluorophenyl)-2,7-dimethyl-1-oxo-1,2-dihydroisoquinolin-5-yl)ethyl)amino)benzoic acid] | >70 | 51.4
8 | 6.43 | < 5.00 | 6.43 | < 5.00 | Cc1cc(C(C)Nc2ccccc2C(=O)O)c2cc(-c3ccc(C(F)(F)F)nc3)n(C)c(=O)c2c1 (centres unmarked) [Example 86, 2-((1-(2,7-dimethyl-1-oxo-3-(6-(trifluoromethyl)pyridin-3-yl)-1,2-dihydroisoquinolin-5-yl)ethyl)amino)benzoic acid] | >26.6 | >27
9 | 6.03 | < 5.00 | 7.62 | < 5.00 | CC(Nc1ccccc1C(=O)O)c1cccc2c(=O)n(C)c(-c3ccccc3)cc12 (centres unmarked) [Example 20, 2-((1-(2-methyl-1-oxo-3-phenyl-1,2-dihydroisoquinolin-5-yl)ethyl)amino)benzoic acid] | >10.7 | >416
10 | 6.28 | < 5.00 | 6.87 | 5.34 | Cc1cc(C(C)Nc2ccccc2C(=O)O)c2cc(-c3cccc(C(C)(C)C#N)c3)n(C)c(=O)c2c1 (centres unmarked) [Example 5, 2-((1-(3-(3-(2-cyanopropan-2-yl)phenyl)-2,7-dimethyl-1-oxo-1,2-dihydroisoquinolin-5-yl)ethyl)amino)benzoic acid] | >19 | 34.3
11 | 6.05 | < 5.00 | 6.36 | 5.55 | Cc1cc(C(C)Nc2ccccc2C(=O)O)c2cc(-c3cnn(CC45CC6C[C@H](C4)C[C@H](C6)C5)c3C)n(C)c(=O)c2c1 (stereo partly drawn) [Example 87, 2-((1-(3-(1-(((3S,5S)-adamantan-1-yl)methyl)-5-methyl-1H-pyrazol-4-yl)-2,7-dimethyl-1-oxo-1,2-dihydroisoquinolin-5-yl)ethyl)amino)benzoic acid] | >11.2 | 6.6
12 | 6.76 | < 5.00 | 6.20 | < 5.00 | Cc1cc(C(C)Nc2ccccc2C(=O)O)c2cc(-c3ccc(N4CCC(C)(O)CC4)nc3)n(C)c(=O)c2c1 (centres unmarked) [Example 72, 2-((1-(3-(6-(4-hydroxy-4-methylpiperidin-1-yl)pyridin-3-yl)-2,7-dimethyl-1-oxo-1,2-dihydroisoquinolin-5-yl)ethyl)amino)benzoic acid] | >57 | >15.79
13 | 5.03 | < 5.00 | 5.50 | < 5.00 | Cc1cc(C(C)Nc2ccccc2C(=O)O)c2cc(NC(=O)c3ccccc3)n(C)c(=O)c2c1 (centres unmarked) [Example 24, 2-((1-(3-benzamido-2,7-dimethyl-1-oxo-1,2-dihydroisoquinolin-5-yl)ethyl)amino)benzoic acid] | >1.07 | >3.1
14 | 6.55 | < 5.00 | 5.81 | < 5.00 | Cc1cc([C@@H](C)Nc2ccccc2C(=O)O)c2cc(-c3cnc(C(C)(C)O)nc3)n(C)c(=O)c2c1 [Example 67, (R)-2-((1-(3-(2-(2-hydroxypropan-2-yl)pyrimidin-5-yl)-2,7-dimethyl-1-oxo-1,2-dihydroisoquinolin-5-yl)ethyl)amino)benzoic acid] | >36 | >6.51
15 | 6.31 | < 5.00 | 7.10 | < 5.00 | Cc1cc(C(C)Nc2ccccc2C(=O)O)c2cc(-c3ccc(F)cc3F)n(C)c(=O)c2c1 (centres unmarked) [Example 11, 2-((1-(3-(2,4-difluorophenyl)-2,7-dimethyl-1-oxo-1,2-dihydroisoquinolin-5-yl)ethyl)amino)benzoic acid] | >20.42 | >125
16 | < 5.00 | < 5.00 | < 5.00 | < 5.00 | Cc1cc(C(C)Nc2ccncc2C(=O)O)c2cc(-c3ccc(F)cc3)n(C)c(=O)c2c1 (centres unmarked) [Example 97, 4-((1-(3-(4-fluorophenyl)-2,7-dimethyl-1-oxo-1,2-dihydroisoquinolin-5-yl)ethyl)amino)nicotinic acid] | – | –
